How the values were obtained:
[1] = test system: influenza virus A/Puerto Rico/8/34 (H1N1); settings: for SI (CC50/IC50): influenza virus A/Puerto Rico/8/34 (H1N1), MDCK cells
[2] = in vitro; settings: dog
[3] = test system: vaccine virus (VV, strain Copenhagen); test: organism not typed; format: cell-based
[4] = test system: herpes simplex virus type 1 (HSV-1, strain VR-3); test: Antiviral activity against HSV-1 on Vero cells; format: cell-based; settings: HSV-1, Vero cells, moi 0.01, 3 days
[5] = test system: bovine diarrhea virus (BDV) (strain VC-1); test: Antiviral activity against BDV on CCV cells; format: cell-based
[6] = test system: MDCK cell line; settings: MTT, 72 h
[7] = CC50, MDCK cell line, MTT, 72 h

CSc1ccc(-c2c(C(F)(F)F)n(C)n(-c3ccccc3)c2=O)cc1 [Compound 3g]
IC50 [1]: > 91 µM | CC50 [2, 7]: 263 ± 19 µM

Cn1c(C(F)(F)F)c(I)c(=O)n1-c1ccccc1 [Compound 5a, 4-iodo-5-trifluoromethyl-antipyrine]
SIBOB (selectivity index) ([3]; VV, Vero cells): 2.9 | activity against the vaccine virus (strain Copenhagen), in words ([3]; Vero cells): weak activity | IC50 ([3]; Vero, 72 h): 103 ± 10 µM | IC50 [4]: Inactive | IC50 ([5]; 72 h): 46.9 ± 2 µM | SIVDC (selectivity index) ([5]; BDV, CCV cells): 6.4 | activity against bovine diarrhea virus (strain VC-1), in words ([5]; CCV cells): weak activity | CC50 [2, 7]: > 815 µM

Cn1c(C(F)(F)C(F)(F)F)c(I)c(=O)n1-c1ccccc1 [Compound 5b]
CC50 [2, 7]: 378 ± 26 µM

Cn1c(C(F)(F)F)c(C#Cc2ccccc2)c(=O)n1-c1ccccc1 [Compound 6a, 1-methyl-2-phenyl-4-(phenylethynyl)-5-(trifluoromethyl)-1,2-dihydro-3H-pyrazol-3-one]
CC50 [6]: > 877 µM | SI (CC50/IC50) [1]: 15 | CC50 [2, 7]: > 815 µM

NC(=O)c1ncn([C@@H]2O[C@H](CO)[C@@H](O)[C@H]2O)n1 [Ribavirin, reference compound]
SI (CC50/IC50) [1]: 59 | CC50 [2]: > 2130 µM

Source: publication PMC9042801 (RSC Advances, 2021)
